Laboratory results from patent US6727227B1, “Tetrapetide revealing geroprotective effect, pharmacological substance on its basis, and the method of its application” (Obschestvo S Ogranichennoi Otvetstven-Nostiju “Klinika …, priority 2002, dated 2004).
Marks after values point to notes of the source that are not given here. Residues, ends and D or L forms follow the SMILES beside them.

Experiments:
[1] = system: blood anti-oxidation defence indices; test: Blood anti-oxidation defence indices in patients with age-related pathology; type: in vivo; conditions: 10 μg intramuscularly daily for 10 days
Description: The studied pharmacological substance was administered to 14 patients (34 to 69 years old) with age-related pathology (hypertension disease, ischemic heart disease, chronic gastritis, non-insulin-dependent diabetes mellitus) and reduction of the anti-oxidation defence indices in blood.
The substance containing L-Ala-L-Glu-L-Asp-Gly tetrapeptide (SEQ ID NO: 1) was administered intramuscularly in the form of an injection solution in a single daily dose of 10 μg per injection for 10 days.

[2] = system: rats; test: Chronic toxicity, 6 months; type: in vivo; conditions: intramuscularly daily during 6 months, 1 μg/kg, 0.1 mg/kg, 1 mg/kg
Description: The animals were exposed daily to a single administration of the drug intramuscularly in doses 1 μg/kg, 0.1 mg/kg, 1 mg/kg in 0.5 ml of sodium chloride solution during 6 months. Behaviour of the animals, their rations and water consumption, the state of their hair integument and mucous membranes were registered. The animals were weighed daily during the first 3 months of the experiment and then once a month. Haematological and biochemical studies were carried out 3 months after the onset of drug administration and upon experiment completion. Functions of the cardiovascular system, liver, pancreas, kidneys, and adrenal glands were assessed. Upon the end of drug administration some animals were subjected to pathomorphological examination for the purpose of estimating the condition of various sections of the brain and spinal marrow, heart, aorta, lungs, liver, kidneys, organs of the endocrine and immune systems.

[3] = system: Drosophila melanogaster of HEM strain; test: Luminol-dependent tissue chemoluminescence in flies of HEM strain; type: in vivo; conditions: 0.00001% of culture medium weight
Excerpt: L-Ala-L-Glu-L-Asp-Gly tetrapeptide (SEQ ID NO: 1) was applied in Drosophila melanogaster larvae of the 2nd age of HEM strain selected for a high ageing rate (20). HEM strain is characterised by the unique dynamics of embryonic mortality, which consists in an increased frequency of early embryonic lethal outcomes from 65% on the 1st day of egg-laying up to 95% on the 4th day, in a reduced average life span (29 days), and in a raised intensity of lipid peroxide oxidation.
L-Ala-L-Glu-L-Asp-Gly tetrapeptide (SEQ ID NO: 1) was added in proportion 0.00001% of the culture medium weight, which was an extremely low dose. The doses described in literature on the influence of various substances on Drosophila melanogaster usually ranged from 0.001 to 0.01%.
Biochemical parameters were studied on 14-day old flies. Among them the activity of catalase activity and the intensity of tissue chemoluminescence were analysed (21, 22, 23). Catalase is the basic enzyme of anti-oxidation defence. […] Luminol-dependent chemoluminescence, induced by hydrogen peroxide, reflects the stage of active oxygen forms in tissues. Thus, a decrease in the chemoluminescence intensity indicates an increase in the organism ability to resist oxidative stress.

[4] = system: patients suffering aspirin bronchial asthma; test: Clinical application in patients suffering aspirin bronchial asthma; type: in vivo
[5] = system: gastric EC-cells; test: Extra-pineal synthesis of melatonin: enteroendocrine and serotonin-positive cell density in stomach after epiphysectomy; type: in vivo, male Wistar rats; conditions: for NEND/1 mm^2 (density of entero-endocrine cells), Fundal / NEND/1 mm^2 (density of entero-endocrine cells), Pyloric / Nser/1 mm^2 (density of serotonin-positive cells), Pyloric: 0.5 μg subcutaneously 10 days
Description: The research was carried out on male Wistar rats weighing 130-140 g. The total number of the animals (23) was divided into 5 groups. The 1st group (control) included intact animals. The animals of groups 2-5 underwent epiphysectomy (EE). In 3 weeks after the surgery (on the 21st day) the animals of the 2nd and 3rd groups were subcutaneously injected with sodium chloride in dose 0.5 ml for the next 10 days. The animals of groups 4 and 5 were administered with L-Ala-L-Glu-L-Asp-Gly tetrapeptide (SEQ ID NO: 1) in dose 0.5 μg according to the same scheme.
Slaughtering of the animals and isolation of their organs were conducted from 10 a.m. to 12 noon by daylight with the use of Nembutal anaesthesia (50 mg/kg). The animals of groups 1, 2 and 4 were slaughtered in 3 days upon the final drug administration (on the 33rd day after the operation and the onset of the experiment), while the animals of groups 3 and 5-in 12 days (on the 42nd day after epiphysectomy). Examined were the main organs of the diffuse neuroendocrine system (DNES): stomach, thyroid gland, and pancreas.
The surgery—epiphysectomy—was conducted under ether anaesthesia according to the devised technique. A 1-1.5 cm long incision was made along the central line of the head. Upon the uncovering of the scull cap an aperture was drilled over the sinus confluence point by means of a hollow 0.5 cm-diameter auger, which was manufactured of a metal tube especially for the experiment. The epiphysis was extracted by means of ophthalmic forceps through the opening in the cranium. The trepanation aperture was covered with an osteal fragment. The skin incision was sewn with silk threads.
Fragments of the extracted organs were fixed for 24 hours in Buen sour liquid for optic microscopy and according to Karnovsky for electron microscopy. Material dehydration and filling it in with paraffin for optic microscopy, as well as epone mixture for ultra-structural examination were prepared according to generally accepted techniques. Paraffin sections (7 μm) were placed on a microscope slide covered with a poly-L-lysine film (Sigma). Ultra-thin sections (100 nm) prepared on LKB-7A microtome (LKB) were contrasted with uranyl acetate and plumbum citrate.
Histological and immunohistochemical examinations were carried out with a Jenamed-2 microscope (Zeiss). Electron-microscopic examination was conducted with a electronic JEM-100S microscope (JEOL).
For staining hematoxyline-eosin was applied. The total population of APUD-cytes in the pyloric and fundal stomach sections was determined according to Grimelius' histochemical silvering method (25).
Immunohistochemical exposure of enterochromophine-cells (EC-cells) was conducted by applying uniclonic antibodies of mice to serotonin (Dako, 1:15 titre). The uniclonic antibodies were identified according to avidin-biotin-peroxidase (ABP) method (Vectastain kit) in order to measure immune serum globulins of mice.
The quantitative studies were carried out by means of computer analysis system of microscopic imprints (Imstar) with the use of Morphostar and Colquant (Imstar) applied licensed computer programmes, in accordance with the basic principles of stereology and morphometry (26).
The quantitative density of enteroendocrine (END) (NEND/1 mm^2) and serotonin-positive cells (Nser/1 mm^2) was estimated in 10 visual fields. The test area (S) constituted 5 mm^2.
For the statistical processing of the acquired data the non-parametric U-criterion by Mann/Whitney was applied.

[6] = 10 μg intramuscularly daily for 10 days
[7] = epiphysectomised rats, 3rd day upon the end of drug administration
[8] = epiphysectomised rats, 12th day upon the end of drug administration

Question: With `C[C@H](N)C(=O)N[C@@H](CCC(=O)O)C(=O)N[C@@H](CC(=O)O)C(=O)NCC(=O)O` [L-Ala-L-Glu-L-Asp-Gly tetrapeptide, L-alanyl-L-glutamyl-L-aspartyl-glycine] (H-AEDG-OH) as the molecule, how does the “Activity of superoxide dismutase, After treatment” value ([1]; before treatment 0.26) read?
Answer: Its value is 0.61* conv. unit/mg of protein.

Question: What about the “Products of spontaneous lipid peroxide oxidation: Schiff bases, After treatment” value ([1]; before treatment 4.6 ± 0.3) of the same molecule?
Answer: The value was 2.9 ± 0.2 μM/l.

Question: And the “Products of spontaneous lipid peroxide oxidation: conjugated hydroperoxides, After treatment” value ([1]; before treatment 7.3 ± 0.6)?
Answer: The value was 2.5 ± 0.2 μM/l.

Question: And the “Pathologic alterations (general state, blood indices, intrinsic organs, cardiovascular, respiratory, liver, kidney)” value [2]?
Answer: The value was “no pathologic alterations”.

Question: And the “Side effects, chronic toxicity” value [2]?
Answer: The value was “absence of side effects”.

Question: And the Chemoluminescence ([3]; females)?
Answer: The Chemoluminescence was 7.9 ± 0.91 conv. unit/mg of protein.

Question: And the Chemoluminescence ([3]; males)?
Answer: The Chemoluminescence was 2.03 ± 0.182 conv. unit/mg of protein.

Question: What about the “Clinical state by the end of the treatment” value [4, 6] of the same molecule?
Answer: The value was “improvement in clinical state by the end of the treatment was observed in the overwhelming majority of patients”.

Question: What about the “External respiratory function (VBC, MVexhR, FEV1, TV/TLC) immediately after treatment” value [4, 6] of the same molecule?
Answer: The value was “did not reveal any essential alterations”.

Question: And the “Reaction to Berotek on the level of distal bronchi” value [4, 6]?
Answer: The value was “showed an improvement”.

Question: What about the “Excretion of 6-sulfatoxymelatonin in urine” value ([4]; at night and in the daytime) of the same molecule?
Answer: Its value is “increased”.

Question: What about the “Extra-pineal synthesis of serotonin and melatonin in gastric EC-cells” value ([5]; epiphysectomised rats) of the same molecule?
Answer: Its value is “promotes the extra-pineal synthesis of serotonin and melatonin”.

Question: And the “NEND/1 mm^2 (density of entero-endocrine cells), Fundal” value [5, 7]?
Answer: Its value is 64 ± 5 /1 mm^2.

Question: What about the “NEND/1 mm^2 (density of entero-endocrine cells), Pyloric” value [5, 7] of the same molecule?
Answer: The value was 21 ± 1 /1 mm^2.

Question: And the “Nser/1 mm^2 (density of serotonin-positive cells), Pyloric” value [5, 7]?
Answer: The value was 26 ± 2 /1 mm^2.

Question: What about the “NEND/1 mm^2 (density of entero-endocrine cells), Fundal” value [5, 8] of the same molecule?
Answer: The value was 47 ± 9 /1 mm^2.

Question: What about the “NEND/1 mm^2 (density of entero-endocrine cells), Pyloric” value [5, 8] of the same molecule?
Answer: The value was 19 ± 1 /1 mm^2.

Question: What about the “Nser/1 mm^2 (density of serotonin-positive cells), Pyloric” value [5, 8] of the same molecule?
Answer: Its value is 26 ± 3 /1 mm^2.

Question: And the “Effect on the epiphysectomy impact on DNES cells” value ([5]; within 3 days upon the end of administration, maintained for 12 days)?
Answer: Its value is “complete suppression of the epiphysectomy impact”.
